From patent US5955100A, “Prodrugs their preparation and use as pharmaceuticals” (priority 1992, dated 1999)

Legend:
adjuvant arthritis = assay: Adjuvant arthritis in the rat; assay type: in vivo
Description: b) Adjuvant arthritis in the rat

EAE = EAE model; assay type: in vivo
Description: Schorlemmer et al., Drugs Exptl. Clin. Res. XVII (10/11) 461-469 (1991)

[1] = tested on: human colon tumors (LoVo); assay: Inhibition of growth of human colon tumors (LoVo) growing subcutaneously in the nude mouse; assay type: in vivo, human tumor in nude mouse; details: for T/C: 1 × i.v., d0
Description: The tested human tumors are routinely maintained and passaged in nude mice. The tumors are tested for human characteristics by immunohistochemistry using monoclonal antibodies at each 3rd passage. The tumor is removed under sterile conditions and cut into small pieces of about 5-10 mm^3. One piece of tumor is implanted subcutaneously into the side of each nude mouse. After about 7-14 days, the piece of tumor is adherent to the surrounding tissue, and the tumor size A is determined with the aid of a calliper rule and measurement of two opposite diameters (a, b) by the following formula: […]
After another measurement of the tumor size carried out at an interval of 3 days, the animals are randomized to the control group and to the groups to be treated (6 animals in each group). Only animals in which a progressive tumor growth was found are used for this. Starting with the day of randomization ([…]), the animals are treated with the test substances in accordance with the scheme indicated below. Twice a week the two tumor diameters are measured for each mouse, and the individual tumor areas are calculated in accordance with the abovementioried formula.
After completion of the experiment, the relative tumor sizes for each individual animal on the particular measurement day are calculated by the formula: Ar =A(day X) /A(day 0). The median for the treated group (AT) is then related to the median for the relative control tumor size (AC), and T/C%=AT /AC […] is calculated. The statistical significance of the antitumor effect is determined with the aid of the Wilcoxon U test.

[2] = Plasma half-life after i.v. injection, liposomal and free prodrug; assay type: in vivo, CD1 nu/nu mice
[3] = Acute toxicity in nude mice (LD50, survival on day 14); details: mouse, in vivo, iv, nude mice (CD-1, nu/nu), 5 min infusion
Description: To determine the acute toxicity, nude mice (CD-1, nu/nu) were infused on day 0 with various doses of the test substance dissolved in 0.5 ml of 5% glucose solution over a period of 5 minutes. Control groups receive merely 0.5 ml of 5% glucose solution. 5 mice are used per concentration of the test substance. The number of mice surviving on day 14 is determined, and the Litchfield Wilcoxon method is used to determine the LD50.

[4] = tested on: human tumor xenografts (ovarian, breast, stomach, lung and bowel carcinomas); assay: Prodrug activation/monotherapy in human tumor xenografts; assay type: in vivo, human tumor in nude mouse
Description: It was possible to show by means of a histochemical test (Murray et al., the journal of histochemistry and cytochemistry 37, 643-652, 1989) for determining. functional human β-glucuronidase that functionally active human .rho.-glucuronidase is present within the necrosis; i.e. cells whose cytoplasmic membrane has already been damaged still contain functionally active β-glucuronidase in the cytoplasm. This human β-glucuronidase which is localized in the necrosis and is not protected by the cytoplasmic membrane brings about the cleavage of the hydrophilic prodrug to the drug in the LoVo tumor.

[5] = tested on: Salmonella typhimurium antigen (STA) induced foot swelling; assay: Delayed Type Hypersensitivity (DTH), 24 h foot swelling; assay type: in vivo, mouse
Description: c) DTH model in the mouse
The effect of 14-O-[4-(beta-D-glucuronyloxy)-3nitrobenzylaminocarbonyl]doxorubicin (prodrug) on inflammation was investigated in a model of delayed type cutaneous reaction (Delayed Type Hypersensitivity, DTH) corresponding to the method described by Collins and Mackaness (J. Immunol. 101: 830-845,1968).
In this model, mice were immunized with a defined amount of killed Salmonella typhimurium bacteria (109) twice at an interval of one week. Three. weeks after the first immunization a DTH reaction was provoked by intraplantar injection of a Salmonella typhimurium antigen (STA). A local inflammatory infiltrate which was composed of granulocytes, macrophages, lymphocytes and accumulated interstitial fluid developed. The extent of the reaction was measured by the increase in foot swelling 24 hours after provocation of the reaction. The effect of the prodrug on the inflammatory reaction was tested with two treatment schemes. One group received a single intravenous administration of 500 mg/kg prodrug 2 hours after the STA injection, and another group received three injections of, in each case, 300 mg/kg prodrug at times 2, 5 and 8 hours after the STA injection.

mouse mammary carcinoma = details: ten i.v. administrations and glucose acidification; treatment started 24 h after implantation; cited from earlier work
[6] = Baba et al., Gann 69, 1978; cited from earlier work
[7] = butyric acid liberated from prodrugs in vivo; cited from earlier work

CC(OC(=O)OCc1ccc(O[C@@H]2O[C@H](C(=O)O)[C@@H](O)[C@H](O)[C@H]2O)c([N+](=O)[O-])c1)=C(C#N)C(=O)Nc1ccc(C(F)(F)F)cc1 [Compound 22, 4-(β-D-Glucuronyloxy)-3-nitrobenzyl 2-[1-cyano-1-(N-4-trifluoromethylphenyl)carbamoyl]propen-1-yl carbonate]
activity by comparison with the active substance (Leflunomide) (adjuvant arthritis): superior activity
activity by comparison with the active substance (Leflunomide) (EAE): superior activity

COc1cccc2c1C(=O)c1c(O)c3c(c(O)c1C2=O)C[C@@](O)(C(=O)COC(=O)NCc1ccc(O[C@@H]2O[C@H](C(=O)O)[C@@H](O)[C@H](O)[C@H]2O)c([N+](=O)[O-])c1)C[C@@H]3O[C@H]1C[C@H](N)[C@H](O)[C@H](C)O1 [Compound 8, 14-O-[4-(Beta-D-glucuronyloxy)-3-nitrobenzylaminocarbonyl]doxorubicin]
T/C ([1]; 500 mg/kg, listed as Prodrug): 40.0%
T/C ([1]; 500 mg/kg, listed as prodrug): ~ 40%
efficacy compared with fusion protein in combination with prodrug ([1]; LoVo, prodrug alone): as effective as in the group which received fusion protein in combination with prodrug
statistical significance (p) of difference to doxorubicin treatment ([1]; tumor growth, vs doxorubicin treatment): < 0.05
half-life ([2]; mouse, plasma, iv, free prodrug, CD1 nu/nu mice (data not shown)): ~20 min
increase in plasma half-life after protein preincubation ([2]; preincubation with 50 g/l human serum albumin or human acid alpha-1 glycoprotein): less distinct increase in the plasma half-life
LD50 at 336 h [3]: > 1500 mg/kg
effect of prodrug monotherapy on tumors without significant necrosis ([4]; non-necrotic tumors (data not shown)): cannot be treated by prodrug monotherapy
endogenous activation by central necrosis ([4]; ovarian, breast, stomach, lung and bowel carcinoma xenografts): confirmed in a large number of human tumor xenografts
24 h foot swelling ([5]; 300 mg/kg, 3 × i.v. (t = +2, +5, +8 h), marked xx): 1.1 ± 1.3
24 h foot swelling ([5]; 500 mg/kg, 1 × i.v. (t = +2 h), mean ± spread, marked x): 3.5 ± 3.9
effect by comparison with standard therapy ([5]; DTH): superior effect
reduction in the inflammatory reaction ([5]; both prodrug treatment schemes): significant reduction in the inflammatory reaction
effect compared with ibuprofen ([5]; three administrations of prodrug (300 mg/kg)): slightly superior to the standard therapy

O=C(O)[C@H]1O[C@@H](Oc2nc(=O)[nH]cc2F)[C@H](O)[C@@H](O)[C@@H]1O [FUOG, 5-fluorouracil O-.rho.-D-glucuronide]
effect on mouse mammary carcinoma (mouse mammary carcinoma): distinct effect

O=c1[nH]cc(F)c(=O)[nH]1 [Compound 5-FU, 5-fluorouracil]
LD50 [6]: 200 mg/kg

CC(C)Cc1ccc(C(C)C(=O)O)cc1 (stereo not shown) [Ibuprofen, ibuprofen, reference compound]
24 h foot swelling ([5]; 200 mg/kg, 1 × p.o. (t = 0), marked xx): 1.7 ± 2.2

COc1cccc2c1C(=O)c1c(O)c3c(c(O)c1C2=O)C[C@@](O)(C(=O)CO)C[C@@H]3O[C@H]1C[C@H](N)[C@H](O)[C@H](C)O1 [Doxorubicin, doxorubicin, reference compound]
T/C ([1]; 12 mg/kg): 78.4%
T/C ([1]; 12 mg/kg, listed as doxorubicin): ~ 80%

CCCC(=O)O [butyric acid]
therapeutic effects compared with cisplatin [7]: inferior to those of a standard cytostatic (cisplatin)
